The values that follow come from patent US20110224215A1, “PRE-SURGICAL TREATMENT” (GALDERMA LABORATORIES, INC., priority 2007, published 2011).

One experiment has as its system facial skin. To be noted: 0.10% in a gel formulation, applied to facial skin fifteen minutes prior to shaving. The source says:
Fifteen minutes prior to shaving, a person applies 0.10% brimonidine tartrate in a gel formulation to the facial skin where they will shave.

Experiment [1] has as its system patients undergoing LASIK surgery. The following applies: prophylactic dosages prior to LASIK surgery for primary myopia/myopic astigmatism or hyperopic astigmatism; cited from earlier work.
For experiment [2], the system named is area of skin where the incision will be made. The following applies: bandage soaked in a solution of 0.25%, applied thirty minutes prior to surgery, removed immediately before incision. The source says:
Thirty minutes prior to undergoing surgery for an appendectomy, a bandage that is soaked in a solution of 0.25% brimonidine is applied to the area of skin where the incision will be made. The bandage is removed immediately before the incision is made.

As for `Brc1c(N=C2NCCN2)ccc2nccnc12.O=C(O)C(O)C(O)C(=O)O` [brimonidine tartrate, 5-bromo-6-(2-imidazolidinylideneamino) quinoxaline L-tartrate], in the experiment with facial skin, the “bleeding from cuts while shaving” value is “will prevent excessive bleeding”.
For `Brc1c(N=C2NCCN2)ccc2nccnc12` [brimonidine, 5-bromo-6-(2-imidazolidinylideneamino)quinoxaline], in experiment [1], the hyperemia entry is “less hyperemia” and the “occurrence of subconjunctival hemorrhage” value is “less occurrence”. The “bleeding and bruising following the surgical procedure” value in experiment [2] was “will significantly reduce bleeding and bruising”.
